# From patent US11596639B2, “Substituted indole Mcl-1 inhibitors” (Vanderbilt University, priority 2016, dated 2023)
# Like-named read-outs stand apart in the source and are kept apart here.
# Tests used:
# [1] = biological target: Mcl-1 (Homo sapiens (Human), UniProt Q07820); assay: TR-FRET binding assay, FITC-Bak peptide and MBP-tagged Mcl-1; details: read-out: Ki for Inhibition of Mcl-1 by TR-FRET assay
# Method: Compounds are diluted in DMSO in a 16-point, semilog serial dilution scheme. […] The plate was mixed and incubated for 3 hours at room temperature. […] TR-FRET signal is plotted and IC50 and Ki values are calculated in the same manner as the fluorescence polarization anisotropy based competition assays.
# [2] = system: H929 human cancer cell lines; assay: Cellular viability / proliferation (Cell TiterGlo, 72 h); format: cell-based
# Method in brief: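 Cells were seeded at 1,000 cells/well in medium with 10% FBS and dosed 24 h later with a 2-fold serial dilution of compound (top concentration 50 μM, final DMSO <1%).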
# [3] = Homo sapiens, NCI-H929, 72 h, read-out: GI50 on cellular proliferation of H929 human cancer cell lines, H929 cells, 72 h, Cell TiterGlo, 10% FBS
# Sequence of Mcl-1 (Q07820 172-327): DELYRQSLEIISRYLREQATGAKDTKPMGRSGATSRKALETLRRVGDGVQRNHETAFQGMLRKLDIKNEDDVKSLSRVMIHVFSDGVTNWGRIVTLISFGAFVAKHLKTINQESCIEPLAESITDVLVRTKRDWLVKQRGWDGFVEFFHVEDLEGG
SMILES,Ki [1],"GI50 [2, 3]","GI50 ([2]; read-out: GI50 on cellular proliferation of H929 human cancer cell lines, H929 cells, 72 h, Cell TiterGlo, 10% FBS)"
"COCCOc1cc(N2C[C@@H](C)n3c(c(CCCOc4cc(C)c(Cl)c(C)c4)c4ccc(Cl)c(-c5c(C)nn(C)c5C)c43)C2=O)c2c(c1)c(C(=O)O)cn2CCOC [Example 656, (R)-7-(7-chloro-10-(3-(4-chloro-3,5-dimethylphenoxy)propyl)-4-methyl-1-oxo-6-(1,3,5-trimethyl-1H-pyrazol-4-yl)-3,4-dihydropyrazino[1,2-a]indol-2(1H)-yl)-5-(2-methoxyethoxy)-1-(2-methoxyethyl)-1H-indole-3-carboxylic acid]",< 0.2 nM,250 nM,–
"Cc1cc(OCCCc2c3n(c4c(-c5c(C)nn(C)c5C)c(Cl)ccc24)[C@H](C)CN(c2cn(Cc4cscn4)c4ccc(C(=O)O)cc24)C3=O)cc(C)c1Cl [Example 532, (R)-3-(7-Chloro-10-(3-(4-chloro-3,5-dimethylphenoxy)propyl)-4-methyl-1-oxo-6-(1,3,5-trimethyl-1H-pyrazol-4-yl)-3,4-dihydropyrazino[1,2-a]indol-2(1H)-yl)-1-(thiazol-4-ylmethyl)-1H-indole-5-carboxylic acid]",0.2 nM,390 nM,–
"Cc1cc(OCCCc2c3n(c4c(-c5c(C)nn(C)c5C)c(Cl)ccc24)[C@H](C)CN(c2cc(OCCN(C)C)cc4cc(C(=O)O)n(Cc5ccccn5)c24)C3=O)cc(C)c1Cl [Example 590, (R)-7-(7-chloro-10-(3-(4-chloro-3,5-dimethylphenoxy)propyl)-4-methyl-1-oxo-6-(1,3,5-trimethyl-1H-pyrazol-4-yl)-3,4-dihydropyrazino[1,2-a]indol-2(1H)-yl)-5-(2-(dimethylamino)ethoxy)-1-(pyridin-2-ylmethyl)-1H-indole-2-carboxylic acid]",< 0.2 nM,670 nM,–
"Cc1cc(OCCCc2c3n(c4c(-c5c(C)nn(C)c5C)c(Cl)ccc24)[C@H](C)CN(c2cc(N(C)C)cc4cc(C(=O)O)n(C)c24)C3=O)cc(C)c1Cl [Example 683, (R)-7-(7-chloro-10-(3-(4-chloro-3,5-dimethylphenoxy)propyl)-4-methyl-1-oxo-6-(1,3,5-trimethyl-1H-pyrazol-4-yl)-3,4-dihydropyrazino[1,2-a]indol-2(1H)-yl)-5-(dimethylamino)-1-methyl-1H-indole-2-carboxylic acid]",0.21 nM,250 nM,–
"Cc1cc(OCCCc2c3n(c4c(-c5c(C)nn(C)c5C)c(Cl)ccc24)[C@H](C)CN(c2cn(Cc4ccncc4)c4ccc(C(=O)O)cc24)C3=O)cc(C)c1Cl [Example 555, (R)-3-(7-chloro-10-(3-(4-chloro-3,5-dimethylphenoxy)propyl)-4-methyl-1-oxo-6-(1,3,5-trimethyl-1H-pyrazol-4-yl)-3,4-dihydropyrazino[1,2-a]indol-2(1H)-yl)-1-(pyridin-4-ylmethyl)-1H-indole-5-carboxylic acid]",0.26 nM,1300 nM,–
"Cc1cc(OCCCc2c3n(c4c(-c5c(C)ncnc5C)c(Cl)ccc24)[C@H](C)CN(c2cn(C)c4ccc(C(=O)O)nc24)C3=O)cc(C)c1Cl [Example 651, (R)-3-(7-chloro-10-(3-(4-chloro-3,5-dimethylphenoxy)propyl)-6-(4,6-dimethylpyrimidin-5-yl)-4-methyl-1-oxo-3,4-dihydropyrazino[1,2-a]indol-2(1H)-yl)-1-methyl-1H-pyrrolo[3,2-b]pyridine-5-carboxylic acid]",< 0.2 nM,290 nM,–
"COCCn1cc(C(=O)O)c2cc(OC)cc(N3C[C@@H](C)n4c(c(CCCOc5cc(C)c(Cl)c(C)c5)c5ccc(Cl)c(-c6c(C)nn(C)c6C)c54)C3=O)c21 (single isomer, unassigned) [Example 672]",0.43 nM,–,840 nM
"Cc1cc(OCCCc2c3n(c4c(-c5c(C)nn(C)c5C)c(Cl)ccc24)[C@H](C)CN(c2cc(OCCOC(C)C)cc4c(C(=O)O)cn(Cc5ccccn5)c24)C3=O)cc(C)c1Cl [Example 606, (R)-7-(7-chloro-10-(3-(4-chloro-3,5-dimethylphenoxy)propyl)-4-methyl-1-oxo-6-(1,3,5-trimethyl-1H-pyrazol-4-yl)-3,4-dihydropyrazino[1,2-a]indol-2(1H)-yl)-5-(2-isopropoxyethoxy)-1-(pyridin-2-ylmethyl)-1H-indole-3-carboxylic acid]",0.47 nM,600 nM,–
"CC(=O)N1CCN(C(=O)c2cc(N3C[C@@H](C)n4c(c(CCCOc5cc(C)c(Cl)c(C)c5)c5ccc(Cl)c(-c6c(C)nn(C)c6C)c54)C3=O)c3c(c2)cc(C(=O)O)n3C)CC1 [Example 629, (R)-5-(4-acetylpiperazine-1-carbonyl)-7-(7-chloro-10-(3-(4-chloro-3,5-dimethylphenoxy)propyl)-4-methyl-1-oxo-6-(1,3,5-trimethyl-1H-pyrazol-4-yl)-3,4-dihydropyrazino[1,2-a]indol-2(1H)-yl)-1-methyl-1H-indole-2-carboxylic acid]",< 0.2 nM,560 nM,–
"Cc1cc(C)nc(Cn2c(C(=O)O)cc3cc(C)cc(N4C[C@@H](C)n5c(c(CCCOc6cc(C)c(Cl)c(C)c6)c6ccc(Cl)c(-c7c(C)nn(C)c7C)c65)C4=O)c32)c1 [Example 599, (R)-7-(7-chloro-10-(3-(4-chloro-3,5-dimethylphenoxy)propyl)-4-methyl-1-oxo-6-(1,3,5-trimethyl-1H-pyrazol-4-yl)-3,4-dihydropyrazino[1,2-a]indol-2(1H)-yl)-1-((4,6-dimethylpyridin-2-yl)methyl)-5-methyl-1H-indole-2-carboxylic acid]",< 0.2 nM,< 200 nM,–
"Cc1cc(OCCCc2c3n(c4c(-c5c(C)nn(C)c5C)c(Cl)ccc24)[C@H](C)CN(c2cc(OCc4cccnc4)cc4cc(C(=O)O)n(C)c24)C3=O)cc(C)c1Cl [Example 487, (R)-7-(7-Chloro-10-(3-(4-chloro-3,5-dimethylphenoxy)propyl)-4-methyl-1-oxo-6-(1,3,5-trimethyl-1H-pyrazol-4-yl)-3,4-dihydropyrazino[1,2-a]indol-2(1H)-yl)-1-methyl-5-(pyridin-3-ylmethoxy)-1H-indole-2-carboxylic acid]",0.23 nM,280 nM,–
"Cc1cc(OCCCc2c3n(c4c(-c5c(C)nn(C)c5C)c(Cl)ccc24)[C@H](C)CN(c2cn(C)c4ccc(-c5cncnc5)cc24)C3=O)cc(C)c1Cl [Example 653, (R)-7-Chloro-10-(3-(4-chloro-3,5-dimethylphenoxy)propyl)-4-methyl-2-(1-methyl-5-(pyrimidin-5-yl)-1H-indol-3-yl)-6-(1,3,5-trimethyl-1H-pyrazol-4-yl)-3,4-dihydropyrazino[1,2-a]indol-1(2H)-one]",15 nM,1900 nM,–
"Cc1cc(OCCCc2c3n(c4c(-c5c(C)nn(C)c5C)c(Cl)ccc24)[C@H](C)CN(c2cc(COCC4COC4)cc4cc(C(=O)O)n(C)c24)C3=O)cc(C)c1Cl [Example 692, (R)-7-(7-chloro-10-(3-(4-chloro-3,5-dimethylphenoxy)propyl)-4-methyl-1-oxo-6-(1,3,5-trimethyl-1H-pyrazol-4-yl)-3,4-dihydropyrazino[1,2-a]indol-2(1H)-yl)-1-methyl-5-((oxetan-3-ylmethoxy)methyl)-1H-indole-2-carboxylic acid]",< 0.2 nM,390 nM,–
"COCCn1c(C(=O)O)cc2c(OC)ccc(N3C[C@@H](C)n4c(c(CCCOc5cc(C)c(Cl)c(C)c5)c5ccc(Cl)c(-c6c(C)n[nH]c6C)c54)C3=O)c21 [Example 728, (R)-7-(7-chloro-10-(3-(4-chloro-3,5-dimethylphenoxy)propyl)-6-(3,5-dimethyl-1H-pyrazol-4-yl)-4-methyl-1-oxo-3,4-dihydropyrazino[1,2-a]indol-2(1H)-yl)-4-methoxy-1-(2-methoxyethyl)-1H-indole-2-carboxylic acid]",< 0.2 nM,710 nM,–
"Cc1cc(OCCCc2c3n(c4c(-c5c(C)nn(C)c5C)c(Cl)ccc24)[C@H](C)CN(c2cn(C)c4ccc(-n5cncn5)cc24)C3=O)cc(C)c1Cl [Example 681, (R)-7-Chloro-10-(3-(4-chloro-3,5-dimethylphenoxy)propyl)-4-methyl-2-(1-methyl-5-(1H-1,2,4-triazol-1-yl)-1H-indol-3-yl)-6-(1,3,5-trimethyl-1H-pyrazol-4-yl)-3,4-dihydropyrazino[1,2-a]indol-1(2H)-one]",5.5 nM,940 nM,–
"Cc1cc(OCCCc2c3n(c4c(-c5c(C)nn(C)c5C)c(Cl)ccc24)[C@H](C)CN(c2cn(CCN4CCCC4)c4ccc(-c5ncn(C)n5)cc24)C3=O)cc(C)c1Cl [Example 586, (R)-7-Chloro-10-(3-(4-chloro-3,5-dimethylphenoxy)propyl)-4-methyl-2-(5-(1-methyl-1H-1,2,4-triazol-3-yl)-1-(2-(pyrrolidin-1-yl)ethyl)-1H-indol-3-yl)-6-(1,3,5-trimethyl-1H-pyrazol-4-yl)-3,4-dihydropyrazino[1,2-a]indol-1(2H)-one]",2.6 nM,400 nM,–
"CC(=O)N1CCN(c2ccnc(Cn3c(C(=O)O)cc4cc(C)cc(N5C[C@@H](C)n6c(c(CCCOc7cc(C)c(Cl)c(C)c7)c7ccc(Cl)c(-c8c(C)nn(C)c8C)c76)C5=O)c43)c2)CC1 [Example 552, (R)-1-((4-(4-acetylpiperazin-1-yl)pyridin-2-yl)methyl)-7-(7-chloro-10-(3-(4-chloro-3,5-dimethylphenoxy)propyl)-4-methyl-1-oxo-6-(1,3,5-trimethyl-1H-pyrazol-4-yl)-3,4-dihydropyrazino[1,2-a]indol-2(1H)-yl)-5-methyl-1H-indole-2-carboxylic acid]",< 0.2 nM,4600 nM,–
